US9899125B2, “Medium- or high-voltage electrical appliance having a low environmental impact and hybrid insulation” (Alstom Technology Ltd., priority 2012, dated 2018)

How the values were obtained:
[1] = Toxicity: LC50 (lethal concentration, 50%); format: in vivo; details: pure heptafluoroisobutyronitrile
[2] = Toxicity for humans and animals (statement)
Excerpt: Currently, the most widely-used gas in that type of equipment is sulfur hexafluoride (SF6). That gas presents dielectric strength that is relatively high, good thermal conductivity, and low dielectric losses. It is chemically inert, non-toxic for humans and animals and, after being dissociated by an electric arc, it recombines quickly and almost completely. In addition, it is non-flammable and its price is still moderate.

[3] = prior art statement; cited from earlier work

Structure (SMILES) | LC50 (lethal concentration, 50%) [1] | toxicity for humans [2] | toxicity for humans and animals [3]
N#CC(F)(C(F)(F)F)C(F)(F)F [Heptafluoroisobutyronitrile, 2,3,3,3-tetrafluoro-2-trifluoromethyl propanenitrile] | greater than 15000 ppm | no specific toxicity | –
FS(F)(F)(F)(F)F [SF6, sulfur hexafluoride] | – | – | non-toxic
